Experiment: Drug solubility versus pH
Format: physicochemical
Details: pH above 7.4
From the text: Media provides sink conditions for maximum release of the drug from pharmaceutical system as well as aids in solubilization of drug for release; therefore, proper selection of media can be important. Media of different pH was used for selection of the correct media for dissolution of the naltrexone implantable tablets. The following five dissolution media were used from pH ranging from 1.2 to 7.4. The pH above 7.4 was not used, as the drug solubility is reduced at pH above 7.4.

O=C1CC[C@@]2(O)[C@H]3Cc4ccc(O)c5c4[C@@]2(CCN3CC2CC2)[C@H]1O5 [Naltrexone, 17-(cyclopropylmethyl)-4,5α-epoxy-3,14-dihydroxymorphinan-6-one]
drug solubility: reduced
